Each structure is given as a SMILES string.

Test [1] deals with absorption of extrinsic cholesterol from the intestinal tract. Particulars: Japanese Laid Open Application Sho-51/026864; cited from earlier work.
Test [2] relates to biosynthesis of cholesterol. As to conditions: Japanese Laid Open Application Sho-51/026864; cited from earlier work.
Test [3] relates to Triton-induced hyperlipemic mice (serum total cholesterol). Put plainly: Effect in Triton-induced hyperlipemic mice (Triton test), inhibiting rate against serum total cholesterol increase. In kind it is in vivo, Male ICR-strain mice. Particulars: Triton WR-1339 500 mg/kg i.v., test compound 300 mg/kg oral, serum TC after 24 hours, ** significant at 1% level. Here is the method: Test method: Male ICR-strain mice of 9 weeks age (6 to 9 mice per group) were used. A solution of Triton WR-1339 in physiological saline solution was injected from tail vein at the dose of 500 mg/kg whereupon hyperlipemia was induced. Physiological saline solution was injected to normal group intravenously. Immediately thereafter, 300 mg/kg of the test compound suspended in 0.5% methylcellulose (MC) was given orally. The group given with 0.5% MC solution was called a control group. After fasting for 24 hours, head was cut, blood was taken, and the TC value of the resulting serum was measured. The inhibiting rate (%) against serum TC increase of the test compound was calculated by the following expression: [formula]

The test system of test [4] is cholesterol loaded rats (serum total cholesterol). Put plainly: Effect in cholesterol loaded rats (HCD test), serum total cholesterol increase-inhibiting rate. Format: in vivo, Male Wister strain rats. Particulars: high-cholesterol food containing 0.03% of test compound, 3 days, serum TC, ** significant at 1% level. Here is the method: Test method: Male Wister strain rats of 4 weeks age (six rats per group) were used. They were fed with a high-cholesterol food containing 0.03% of the compound to be tested. After 3 days' feeding, they were fasted overnight, blood was collected therefrom, and the total cholesterol level (TC) in serum was measured. A group fed with a high cholesterol food containing no test compound and groups fed with normal synthetic food were called control group and normal groups, respectively. The serum TC increase-inhibiting rate (%) of the test compound was calculated by the following expression: [formula]

Take `Cc1cccc(C)c1NC(=O)C1(C)CCCC2(C)C3=C(CCC12)CC(C(C)C)CC3` (stereo not shown) [N--(2,6-Dimethylphenyl)-Δ^8-dihydroabietamide, reference compound]: the “inhibition of absorption of extrinsic cholesterol from the intestinal tract” value in test [1] was “inhibit absorption of extrinsic cholesterol from the intestinal tract”. Moreover, the “inhibition of the biosynthesis of cholesterol” value in test [2] is on record as “do not inhibit the biosynthesis of cholesterol”. Also, the “Inhibitory Rate for Cholesterol Increase (Triton Test)” value in test [3] is on record as -8%. Further, in test [4], the “Inhibitory Rate for Cholesterol Increase (HCD Test)” value amounted to 100%.

In the case of `CC(C)C1CCC2=C(CCC3C(C)(C(=O)Nc4nccs4)CCCC23C)C1` (stereo not shown) [Example 3, N-(Thiazol-2-yl)-Δ^8-dihydroabietamide], the “Inhibitory Rate for Cholesterol Increase (Triton Test)” value in test [3] is recorded as 75%. Also, the “Inhibitory Rate for Cholesterol Increase (HCD Test)” value in test [4] came out at 47%.

On to `CC(C)C1CCC2=C(CCC3C(C)(C(=O)Nc4ccnn4-c4ccccc4)CCCC23C)C1` (stereo not shown) [Example 1, N-(1-phenylpyrazol-5-yl)-Δ^8-dihydroabietamide], for which the “Inhibitory Rate for Cholesterol Increase (Triton Test)” value in test [3] is 32%. Also, in test [4], the “Inhibitory Rate for Cholesterol Increase (HCD Test)” value was 115%.

Consider `Cc1csc(NC(=O)C2(C)CCCC3(C)C4=C(CCC23)CC(C(C)C)CC4)n1` (stereo not shown) [Example 4, N-(4-Methylthiazol-2-yl)-Δ^8-dihydroabietamide], for which the “Inhibitory Rate for Cholesterol Increase (Triton Test)” value in test [3] is 68%. In test [4], the “Inhibitory Rate for Cholesterol Increase (HCD Test)” value came out at 102%.

The record behind these values is patent US4755523A, “Abietamide derivatives” (Nippon Shinyaku Co., Ltd., priority 1986, dated 1988).
